{
  "source": "patent EP1487791B1",
  "about": "“A NOVEL ANTIFUNGAL MOLECULE 2-(3,4-DIMETHYL-2,5-DIHYDRO-1H-PYRROL-2-YL)- METHYLETHYL PENTANOATE” (priority 2002, dated 2003)",
  "type_in_all_cases": "cell-based",
  "key": {"[1]": {"test_system": "A.fumigatus", "assay": "Disc diffusion assay", "experimental": "(§1) Pathogenic strains of fungi were obtained from the Mycology Department of Vallabhbhai Patel Chest Institute, Delhi. All the strains were grown on Sabouraud dextrose agar at 37°C. The conidia form these cultures were harvested and suspended in Sabouraud maltose broth. The number of conidia was counted using haemocytometer and their number in the suspension was adjusted to as per need of the experiment.\n(§2) The disc diffusion test was performed as per described in the section of details of invention. Amphotericin B 1.25 µg/disc was used in assay as positive control standard drug. Additional discs impregnated with equivalent amount of solvent were also used in the assay as negative controls (Fig: 5). […] Table 2: Antifungal activity of compound by disc diffusion method\nThe potency of the compound was determined with the help of standard curve constructed using amphotericin B as standard drug against A.fumigatus. Standard curve was prepared according to method given in the Indian Pharmacopoeia. The corrected values of diameter of zone of inhibition along with lowest and highest values were determined. These values were plotted on semilog paper to prepare standard curve. The value of diameter of zone of inhibition obtained for compound was put into the standard curve and corresponding dose producing the effect equivalent to amphotericin B was determined to find out the potency of the compound (Fig: 6)."}, "[2]": {"test_system": "A.niger", "assay": "Disc diffusion assay", "conditions": "48 hrs", "experimental": "as §1, §2"}, "[3]": {"test_system": "A. flavus", "assay": "Disc diffusion assay", "conditions": "Aspergillus flavus, 48 hrs, read-out: Diameter of zone of inhibition", "experimental": "as §1, §2"}, "[4]": {"test_system": "A.flavus", "assay": "Microbroth dilution assay", "parameters": "key: +ve if medium appeared clear with out any growth of fungi; -ve if growth was there", "experimental": "as §1\n(§3) The antifungal susceptibility of the fungi to various fractions or the purified component was assayed by the microbroth, dilution method (Forthergill A.W. and McGough A.W., 1995, Clin. Microbiol. Procedure Handbook. In Vitro susceptibility Testing of Yeast, 5.15.1-5.15.15). The fungal spores were harvested from 96-h cultures and their number adjusted to 1x10^6 per ml. The Sabouraud Dextrose medium was dissolved in glass double distilled water and autoclaved at 10 psi for 15 min. 90-µl medium was added into the wells of cell culture plates. The different concentrations of the extract, fractions or the purified compound were prepared in duplicate wells and then the wells were inoculated with 10 µl of spore suspension. The plates were incubated at 37°C and examined macroscopically after 48 h for the growth of fungal mycelia. The activity was represented as -ve if growth was there and +ve if medium appeared clear with out any growth of fungi.\n(§4) The antifungal susceptibility of the fungi to the purified compound was assayed by the microbroth dilution method. The different concentrations of the purified compound ranging from 21.87 to 350 µg/ml were prepared in duplicate wells by twofold dilution method. The test was done as described above. […] Table 1: Activity of the compound against Aspergillus sp. after 48 hrs."}, "[5]": {"test_system": "A. niger", "assay": "Microbroth dilution assay", "parameters": "key: +ve if medium appeared clear with out any growth of fungi; -ve if growth was there", "experimental": "as §1, §3, §4"}, "[6]": {"test_system": "A. fumigatus", "assay": "Microbroth dilution assay", "parameters": "key: +ve if medium appeared clear with out any growth of fungi; -ve if growth was there", "experimental": "as §1, §3, §4"}},
  "data": [
    {"smiles": "CCCCC(=O)OC(C)CC1NCC(C)=C1C", "note": "(centres unmarked) [PC-1, 2-(3,4-dimethyl-2,5-dihydro-1H-pyrrol-2-yl)-1-methylethyl pentanoate]", "values": [
      {"measurement": "amount of amphotericin B producing an equivalent diameter of zone of inhibition", "setting": "[1]; 10 µg/disc of the compound, standard curve with amphotericin B", "value": 2.67, "unit": "µg"},
      {"measurement": "zone of inhibition at 5 µg/disc", "setting": "[1]; Aspergillus fumigatus, 5.0 µg/disc, 48 hrs, read-out: Diameter of zone of inhibition", "value": 6.25, "unit": "mm"},
      {"measurement": "zone of inhibition at 10 µg/disc", "setting": "[1]; Aspergillus fumigatus, 10.0 µg/disc, 48 hrs, read-out: Diameter of zone of inhibition", "value": 8.5, "unit": "mm"},
      {"measurement": "zone of inhibition at 20 µg/disc", "setting": "[1]; Aspergillus fumigatus, 20.0 µg/disc, 48 hrs, read-out: Diameter of zone of inhibition", "value": 9.25, "unit": "mm"},
      {"measurement": "less potent as compared to amphotericin B", "setting": "[1]; disc diffusion standard curve", "value": 3.74, "unit": "time"},
      {"measurement": "Diameter of zone of inhibition", "setting": "[2]; 5.0 µg/disc", "value": 6.40, "unit": "mm"},
      {"measurement": "zone of inhibition at 5 µg/disc", "setting": "[2]; Aspergillus niger, 5.0 µg/disc, read-out: Diameter of zone of inhibition", "value": 6.4, "unit": "mm"},
      {"measurement": "zone of inhibition at 10 µg/disc", "setting": "[2]; Aspergillus niger, 10.0 µg/disc, read-out: Diameter of zone of inhibition", "value": 8.6, "unit": "mm"},
      {"measurement": "zone of inhibition at 5 µg/disc", "setting": "[3]; 5.0 µg/disc", "value": 6.15, "unit": "mm"},
      {"measurement": "zone of inhibition at 10 µg/disc", "setting": "[3]; 10.0 µg/disc", "value": 8.1, "unit": "mm"},
      {"measurement": "zone of inhibition at 20 µg/disc", "setting": "[3]; 20.0 µg/disc", "value": 9, "unit": "mm"},
      {"measurement": "Activity against Aspergillus sp. after 48 hrs", "setting": "[4]; 21.87 µg/ml", "value": "-"},
      {"measurement": "Activity against Aspergillus sp. after 48 hrs", "setting": "[4]; 43.75 µg/ml", "value": "-"},
      {"measurement": "Activity against Aspergillus sp. after 48 hrs", "setting": "[4]; 87.50 µg/ml", "value": "+"},
      {"measurement": "Activity against Aspergillus sp. after 48 hrs", "setting": "[4]; 175.00 µg/ml", "value": "+"},
      {"measurement": "Activity against Aspergillus sp. after 48 hrs", "setting": "[4]; 350.00 µg/ml", "value": "+"},
      {"measurement": "Activity against Aspergillus sp. after 48 hrs", "setting": "[5]; 21.87 µg/ml", "value": "-"},
      {"measurement": "Activity against Aspergillus sp. after 48 hrs", "setting": "[5]; 43.75 µg/ml", "value": "-"},
      {"measurement": "Activity against Aspergillus sp. after 48 hrs", "setting": "[5]; 87.50 µg/ml", "value": "+"},
      {"measurement": "Activity against Aspergillus sp. after 48 hrs", "setting": "[5]; 175.00 µg/ml", "value": "+"},
      {"measurement": "Activity against Aspergillus sp. after 48 hrs", "setting": "[5]; 350.00 µg/ml", "value": "+"},
      {"measurement": "Activity against Aspergillus sp. after 48 hrs", "setting": "[6]; 21.87 µg/ml", "value": "-"},
      {"measurement": "Activity against Aspergillus sp. after 48 hrs", "setting": "[6]; 43.75 µg/ml", "value": "-"},
      {"measurement": "Activity against Aspergillus sp. after 48 hrs", "setting": "[6]; 87.50 µg/ml", "value": "+"},
      {"measurement": "Activity against Aspergillus sp. after 48 hrs", "setting": "[6]; 175.00 µg/ml", "value": "+"},
      {"measurement": "Activity against Aspergillus sp. after 48 hrs", "setting": "[6]; 350.00 µg/ml", "value": "+"}
    ]}
  ]
}
